{"source": "patent US20260356804A1", "about": "“SODIUM CHANNEL BLOCKING COMPOUNDS, DERIVATIVES THEREOF, AND METHODS OF THEIR USE” (LATIGO BIOTHERAPEUTICS, INC., priority 2022, published 2026)", "biological_target": "T1, human Nav1.8/b3 (Homo sapiens, UniProt Q9Y5Y9)", "T1 construct": "expressed in transfected cells; host or cells: CHO", "T1 sequence (Q9Y5Y9 whole entry)": "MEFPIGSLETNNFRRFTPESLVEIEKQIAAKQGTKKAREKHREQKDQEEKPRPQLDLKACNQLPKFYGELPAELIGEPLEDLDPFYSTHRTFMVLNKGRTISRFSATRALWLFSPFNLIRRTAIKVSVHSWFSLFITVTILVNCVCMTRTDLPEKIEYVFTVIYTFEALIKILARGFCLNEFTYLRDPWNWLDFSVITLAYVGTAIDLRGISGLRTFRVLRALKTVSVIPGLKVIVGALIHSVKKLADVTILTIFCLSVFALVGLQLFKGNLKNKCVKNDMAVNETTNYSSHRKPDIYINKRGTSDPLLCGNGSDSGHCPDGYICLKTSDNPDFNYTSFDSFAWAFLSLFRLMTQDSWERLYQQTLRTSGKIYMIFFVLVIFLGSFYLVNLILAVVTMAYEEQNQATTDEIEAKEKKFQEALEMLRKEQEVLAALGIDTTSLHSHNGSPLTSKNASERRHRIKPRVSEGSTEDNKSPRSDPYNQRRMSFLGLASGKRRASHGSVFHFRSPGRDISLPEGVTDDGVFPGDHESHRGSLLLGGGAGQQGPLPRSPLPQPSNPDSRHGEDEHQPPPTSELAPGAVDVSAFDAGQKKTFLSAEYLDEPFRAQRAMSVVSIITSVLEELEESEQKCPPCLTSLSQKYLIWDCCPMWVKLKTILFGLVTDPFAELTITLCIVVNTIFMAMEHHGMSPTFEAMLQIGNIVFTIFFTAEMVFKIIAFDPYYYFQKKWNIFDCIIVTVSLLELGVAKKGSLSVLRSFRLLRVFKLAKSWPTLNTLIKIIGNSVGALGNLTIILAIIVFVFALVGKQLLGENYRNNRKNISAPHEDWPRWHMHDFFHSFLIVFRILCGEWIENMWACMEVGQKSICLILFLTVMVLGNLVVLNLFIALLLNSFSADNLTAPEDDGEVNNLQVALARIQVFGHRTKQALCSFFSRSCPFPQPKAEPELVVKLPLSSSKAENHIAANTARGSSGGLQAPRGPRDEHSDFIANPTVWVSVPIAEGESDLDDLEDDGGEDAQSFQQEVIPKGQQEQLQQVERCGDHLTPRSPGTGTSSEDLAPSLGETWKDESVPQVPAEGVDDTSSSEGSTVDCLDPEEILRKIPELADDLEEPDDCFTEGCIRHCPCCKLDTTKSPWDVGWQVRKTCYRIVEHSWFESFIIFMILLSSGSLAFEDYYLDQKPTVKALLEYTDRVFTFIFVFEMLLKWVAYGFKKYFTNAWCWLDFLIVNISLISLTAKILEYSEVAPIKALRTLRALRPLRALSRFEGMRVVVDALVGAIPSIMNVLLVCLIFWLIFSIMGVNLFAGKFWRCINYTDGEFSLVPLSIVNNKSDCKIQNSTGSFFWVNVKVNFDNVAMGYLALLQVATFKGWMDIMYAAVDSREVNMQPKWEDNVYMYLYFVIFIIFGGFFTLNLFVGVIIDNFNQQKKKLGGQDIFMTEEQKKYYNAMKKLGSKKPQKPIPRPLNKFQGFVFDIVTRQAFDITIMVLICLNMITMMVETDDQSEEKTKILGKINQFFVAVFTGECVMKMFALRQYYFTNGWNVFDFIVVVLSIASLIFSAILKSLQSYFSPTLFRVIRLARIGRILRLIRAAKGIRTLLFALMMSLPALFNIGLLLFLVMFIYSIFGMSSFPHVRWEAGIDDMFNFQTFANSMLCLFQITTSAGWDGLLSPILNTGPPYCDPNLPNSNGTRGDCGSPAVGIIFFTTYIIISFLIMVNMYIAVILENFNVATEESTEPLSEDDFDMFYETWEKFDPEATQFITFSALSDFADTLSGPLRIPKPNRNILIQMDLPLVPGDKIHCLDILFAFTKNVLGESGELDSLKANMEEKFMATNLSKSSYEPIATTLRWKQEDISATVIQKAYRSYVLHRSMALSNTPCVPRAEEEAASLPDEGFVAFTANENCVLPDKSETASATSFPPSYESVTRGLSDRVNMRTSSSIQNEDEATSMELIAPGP", "T1 sequence (Q9NY72 23-215 partner)": "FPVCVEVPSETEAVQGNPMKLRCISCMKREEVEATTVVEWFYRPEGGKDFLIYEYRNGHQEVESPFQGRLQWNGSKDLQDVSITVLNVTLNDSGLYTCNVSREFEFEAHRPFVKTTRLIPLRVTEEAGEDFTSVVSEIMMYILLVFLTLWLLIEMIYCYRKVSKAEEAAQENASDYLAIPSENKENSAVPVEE", "assay": "Compound Profiling Human NaV1.8/β3 Cell Line—SyncroPatch384PE Assay (automated patch clamp, stably transfected CHO cells)", "assay_type": "cell-based", "conditions": "Nav1.8/b3 CHO cells", "key": {"[1]": {"conditions": "P1 (IC50, resting state block), P1 measurement, resting state block, holding potential −120 mV, first set of compounds"}, "[2]": {"conditions": "P2 (IC50, inactivated state block), P2 measurement, inactivated state block, inactivation step −35 mV 10 sec, first set of compounds"}, "[3]": {"conditions": "P1 (IC50, resting state block), P1 measurement, resting state block, holding potential −120 mV, second set of compounds"}, "[4]": {"conditions": "P2 (IC50, inactivated state block), P2 measurement, inactivated state block, inactivation step −35 mV 10 sec, second set of compounds"}, "[5]": {"conditions": "P1 (IC50, resting state block), P1 measurement, resting state block, holding potential −120 mV, third set of compounds"}, "[6]": {"conditions": "P2 (IC50, inactivated state block), P2 measurement, inactivated state block, inactivation step −35 mV 10 sec, third set of compounds"}, "[7]": {"conditions": "P1 (IC50, resting state block), P1 measurement, resting state block, holding potential −120 mV, fourth set of compounds"}, "[8]": {"conditions": "P2 (IC50, inactivated state block), P2 measurement, inactivated state block, inactivation step −35 mV 10 sec, fourth set of compounds"}, "[9]": {"conditions": "P1 measurement, resting state block, holding potential −120 mV, third set of compounds, read-out: P1 (IC50, resting state block)"}, "[10]": {"conditions": "P2 measurement, inactivated state block, inactivation step −35 mV 10 sec, third set of compounds, read-out: P2 (IC50, inactivated state block)"}}, "note": "Structures can show the parent of a compound that is named as a salt. Where two headings read alike, the source gives them in different places.", "data": [{"smiles": "Cc1nc(F)ccc1Oc1cc(C(F)(F)F)c(Cl)cc1C(=O)Nc1ccc([S@](C)(=N)=O)cc1", "note": "[Example 49A]", "values": [{"measurement": "IC50", "setting": "[1]", "value": "50 to 100", "unit": "nM"}, {"measurement": "IC50", "setting": "[2]", "value": "50 to 100", "unit": "nM"}]}, {"smiles": "CNCC(=O)N=[S@](C)(=O)c1cccc(NC(=O)c2c(Oc3ccc(F)nc3C)ccc(C(F)(F)F)c2C)c1", "note": "[Example 25B]", "values": [{"measurement": "IC50", "setting": "[3]", "value": "< 5", "unit": "nM"}, {"measurement": "IC50", "setting": "[4]", "value": "< 5", "unit": "nM"}]}, {"smiles": "Cc1nc(F)ccc1Oc1nnc(C(F)(F)F)c(C)c1C(=O)Nc1cccc(S(N)(=O)=O)c1", "note": "[Example 13C, 3-((6-fluoro-2-methylpyridin-3-yl)oxy)-5-methyl-N-(3-sulfamoylphenyl)-6-(trifluoromethyl)pyridazine-4-carboxamide]", "values": [{"measurement": "IC50", "setting": "[5]", "value": "< 5", "unit": "nM"}, {"measurement": "IC50", "setting": "[6]", "value": "< 5", "unit": "nM"}]}, {"smiles": "Cc1nc(F)ccc1Oc1ncc(-c2ccc(C(F)F)cc2)c(C)c1C(=O)Nc1cccc([S@](C)(=N)=O)c1", "note": "[Example 2C, (R)-5-(4-(difluoromethyl)phenyl)-2-((6-fluoro-2-methylpyridin-3-yl)oxy)-4-methyl-N-(3-(S-methylsulfonimidoyl)phenyl)nicotinamide]", "values": [{"measurement": "IC50", "setting": "[5]", "value": "5 to 50", "unit": "nM"}, {"measurement": "IC50", "setting": "[6]", "value": "5 to 50", "unit": "nM"}]}, {"smiles": "CNCC(=O)N=[S@](C)(=O)c1cccc(NC(=O)c2c(Oc3ccc(F)nc3C)nnc(C(F)(F)F)c2C)c1", "note": "[Example 25D, (R)-3-((6-fluoro-2-methylpyridin-3-yl)oxy)-5-methyl-N-(3-(S-methyl-N-(methylglycyl)sulfonimidoyl)phenyl)-6-(trifluoromethyl)pyridazine-4-carboxamide]", "values": [{"measurement": "IC50", "setting": "[7]", "value": "< 5", "unit": "nM"}, {"measurement": "IC50", "setting": "[8]", "value": "< 5", "unit": "nM"}]}, {"smiles": "Cc1nc(F)ccc1Oc1ccc(C(F)(F)F)c(F)c1C(=O)Nc1cccc([S@@](C)(=O)=NC(=O)CN)c1", "note": "[Example 16B, (R)-2-fluoro-6-((6-fluoro-2-methylpyridin-3-yl)oxy)-N-(3-(N-glycyl-S-methylsulfonimidoyl)phenyl)-3-(trifluoromethyl)benzamide]", "values": [{"measurement": "IC50", "setting": "[3]", "value": "< 5", "unit": "nM"}, {"measurement": "IC50", "setting": "[4]", "value": "< 5", "unit": "nM"}]}, {"smiles": "Cc1nc(F)ccc1Oc1ncc(C(F)(F)F)c(C)c1C(=O)Nc1ccc(F)c(S(C)(=O)=O)c1", "note": "[Example 101C]", "values": [{"measurement": "IC50", "setting": "[9]", "value": "5 to 50", "unit": "nM"}, {"measurement": "IC50", "setting": "[10]", "value": "5 to 50", "unit": "nM"}]}, {"smiles": "Cc1nc(F)ccc1Oc1ncc(C(F)(F)F)c(C)c1C(=O)Nc1ccc(F)c([S+](C)[O-])c1", "note": "(stereo not drawn) [Example 102C]", "values": [{"measurement": "IC50", "setting": "[5]", "value": "5 to 50", "unit": "nM"}, {"measurement": "IC50", "setting": "[6]", "value": "5 to 50", "unit": "nM"}]}, {"smiles": "Cc1nc(F)ccc1Oc1cc(C(F)(F)F)ccc1C(=O)Nc1cccc([S@@](C)(=O)=NC(=O)CN)c1", "note": "[Example 14B, (R)-2-((6-fluoro-2-methylpyridin-3-yl)oxy)-N-(3-(N-glycyl-S-methylsulfonimidoyl)phenyl)-4-(trifluoromethyl)benzamide]", "values": [{"measurement": "IC50", "setting": "[3]", "value": "5 to 50", "unit": "nM"}, {"measurement": "IC50", "setting": "[4]", "value": "5 to 50", "unit": "nM"}]}, {"smiles": "[2H]C([2H])([2H])c1nc(F)ccc1Oc1cc(C(F)(F)F)c(Cl)cc1C(=O)Nc1ccnc([S@](C)(=N)=O)c1", "note": "[Example 13A, (R)-5-chloro-2-((6-fluoro-2-(methyl-d3)pyridin-3-yl)oxy)-N-(2-(S-methylsulfonimidoyl)pyridin-4-yl)-4-(trifluoromethyl)benzamide]", "values": [{"measurement": "IC50", "setting": "P1 measurement, resting state block, holding potential −120 mV, first set of compounds, read-out: P1 (IC50, resting state block)", "value": "< 5", "unit": "nM"}, {"measurement": "IC50", "setting": "P2 measurement, inactivated state block, inactivation step −35 mV 10 sec, first set of compounds, read-out: P2 (IC50, inactivated state block)", "value": "< 5", "unit": "nM"}]}, {"smiles": "Cc1nc(F)ccc1Oc1cc(C(F)(F)F)ccc1C(=O)Nc1cccc([S@@](C)(=O)=NC(=O)[C@H](C)O)c1", "note": "[Example 12B, 2-((6-fluoro-2-methylpyridin-3-yl)oxy)-N-(3-((R)—N—((S)-2-hydroxypropanoyl)-S-methylsulfonimidoyl)phenyl)-4-(trifluoromethyl)benzamide]", "values": [{"measurement": "IC50", "setting": "[3]", "value": "5 to 50", "unit": "nM"}, {"measurement": "IC50", "setting": "[4]", "value": "5 to 50", "unit": "nM"}]}, {"smiles": "Cc1nc(F)ccc1Oc1nnc(C(F)(F)F)c(C)c1C(=O)Nc1cccc([S@](C)(=N)=O)c1", "note": "[Example 9C, (R)-3-((6-fluoro-2-methylpyridin-3-yl)oxy)-5-methyl-N-(3-(S-methylsulfonimidoyl)phenyl)-6-(trifluoromethyl)pyridazine-4-carboxamide]", "values": [{"measurement": "IC50", "setting": "[5]", "value": "50 to 100", "unit": "nM"}, {"measurement": "IC50", "setting": "[6]", "value": "50 to 100", "unit": "nM"}]}, {"smiles": "Cc1nc(F)ccc1Oc1nnc(-c2ccc3c(c2)OCCO3)c(C)c1C(=O)Nc1cccc([S@](C)(=N)=O)c1", "note": "[Example 7C, (R)-6-(2,3-dihydrobenzo[b][1,4]dioxin-6-yl)-3-((6-fluoro-2-methylpyridin-3-yl)oxy)-5-methyl-N-(3-(S-methylsulfonimidoyl)phenyl)pyridazine-4-carboxamide]", "values": [{"measurement": "IC50", "setting": "[5]", "value": "< 5", "unit": "nM"}, {"measurement": "IC50", "setting": "[6]", "value": "< 5", "unit": "nM"}]}, {"smiles": "Cc1nc(F)ccc1Oc1cc(C(F)(F)F)c(Cl)cc1C(=O)Nc1cccc([S@@](C)(=O)=NCCN)c1", "note": "[Example 14A, (R)—N-(3-(N-(2-aminoethyl)-S-methylsulfonimidoyl)phenyl)-5-chloro-2-((6-fluoro-2-methylpyridin-3-yl)oxy)-4-(trifluoromethyl)benzamide]", "values": [{"measurement": "IC50", "setting": "[1]", "value": "< 5", "unit": "nM"}, {"measurement": "IC50", "setting": "[2]", "value": "< 5", "unit": "nM"}]}, {"smiles": "Cc1nc(F)ccc1Oc1nnc(C(F)(F)F)c(C)c1C(=O)Nc1cccc([S@@](C)(=O)=NC(=O)[C@@H](C)N)c1", "note": "[Example 21D, N-(3-((R)—N-(D-alanyl)-S-methylsulfonimidoyl)phenyl)-3-((6-fluoro-2-methylpyridin-3-yl)oxy)-5-methyl-6-(trifluoromethyl)pyridazine-4-carboxamide]", "values": [{"measurement": "IC50", "setting": "[7]", "value": "< 5", "unit": "nM"}, {"measurement": "IC50", "setting": "[8]", "value": "< 5", "unit": "nM"}]}, {"smiles": "Cc1nc(F)ccc1Oc1nc(C(F)(F)F)c(Br)c(C)c1C(=O)Nc1cccc([S@@](C)(=O)=NCCN)c1", "note": "[Example 96C]", "values": [{"measurement": "IC50", "setting": "[5]", "value": "< 5", "unit": "nM"}, {"measurement": "IC50", "setting": "[6]", "value": "< 5", "unit": "nM"}]}, {"smiles": "Cc1nc(F)ccc1Oc1ncc(C(F)(F)F)c(C)c1C(=O)Nc1cccc([S@@](C)(=O)=NCC(C)(C)N)c1", "note": "[Example 90C]", "values": [{"measurement": "IC50", "setting": "[5]", "value": "< 5", "unit": "nM"}, {"measurement": "IC50", "setting": "[6]", "value": "< 5", "unit": "nM"}]}, {"smiles": "Cc1nc(F)ccc1Oc1cc(C(F)(F)F)c(Cl)c(C)c1C(=O)Nc1cccc([S@@](C)(=N)=O)c1", "note": "[Example 66A]", "values": [{"measurement": "IC50", "setting": "[1]", "value": "< 5", "unit": "nM"}, {"measurement": "IC50", "setting": "[2]", "value": "< 5", "unit": "nM"}]}, {"smiles": "COc1c(Oc2cc(C(F)(F)F)nnc2C(=O)Nc2cccc([S+](C)[O-])c2)ccc(F)c1F", "note": "(stereo not drawn) [Example 30C, 4-(3,4-difluoro-2-methoxyphenoxy)-N-(3-(methylsulfinyl)phenyl)-6-(trifluoromethyl)pyridazine-3-carboxamide]", "values": [{"measurement": "IC50", "setting": "[5]", "value": "> 200", "unit": "nM"}, {"measurement": "IC50", "setting": "[6]", "value": "> 200", "unit": "nM"}]}, {"smiles": "Cc1nc(F)ccc1Oc1cc(C(F)(F)F)cc(F)c1C(=O)Nc1ccnc([S@](C)(=N)=O)c1", "note": "[Example 40A]", "values": [{"measurement": "IC50", "setting": "[1]", "value": "5 to 50", "unit": "nM"}, {"measurement": "IC50", "setting": "[2]", "value": "5 to 50", "unit": "nM"}]}, {"smiles": "Cc1nc(F)ccc1Oc1ccc(-c2cnn(C)c2)c(C)c1C(=O)Nc1cccc([S@](C)(=N)=O)c1", "note": "[Example 7A, (R)-6-((6-fluoro-2-methylpyridin-3-yl)oxy)-2-methyl-3-(1-methyl-1H-pyrazol-4-yl)-N-(3-(S-methylsulfonimidoyl)phenyl)benzamide]", "values": [{"measurement": "IC50", "setting": "[1]", "value": "> 200", "unit": "nM"}, {"measurement": "IC50", "setting": "[2]", "value": "> 200", "unit": "nM"}]}, {"smiles": "Cc1nc(F)ccc1Oc1nc(C2CC2)c(C(F)(F)F)c(C)c1C(=O)Nc1cccc([S@@](C)(=N)=O)c1", "note": "[Example 107C]", "values": [{"measurement": "IC50", "setting": "[9]", "value": "< 5", "unit": "nM"}, {"measurement": "IC50", "setting": "[10]", "value": "< 5", "unit": "nM"}]}, {"smiles": "Cc1nc(F)ccc1Oc1ncc(C(F)(F)F)c(C)c1C(=O)Nc1cccc([S@@](C)(=O)=NC(=O)[C@@H](C)N)c1", "note": "[Example 9D, N-(3-((R)—N-(D-alanyl)-S-methylsulfonimidoyl)phenyl)-2-((6-fluoro-2-methylpyridin-3-yl)oxy)-4-methyl-5-(trifluoromethyl)nicotinamide formate]", "values": [{"measurement": "IC50", "setting": "[7]", "value": "< 5", "unit": "nM"}, {"measurement": "IC50", "setting": "[8]", "value": "< 5", "unit": "nM"}]}, {"smiles": "COc1cc(C#N)ccc1Oc1cc(C(F)(F)F)nnc1C(=O)Nc1cccc(S(C)(=N)=O)c1", "note": "(stereo not drawn) [Example 34C, 4-(4-cyano-2-methoxyphenoxy)-N-(3-(S-methylsulfonimidoyl)phenyl)-6-(trifluoromethyl)pyridazine-3-carboxamide]", "values": [{"measurement": "IC50", "setting": "[5]", "value": "> 200", "unit": "nM"}, {"measurement": "IC50", "setting": "[6]", "value": "> 200", "unit": "nM"}]}]}
